The conditions of data set [1]: high orally administered doses; cited from earlier work.
The next data set can be described thus: in vivo. Particulars: rat. On the procedure: Method for Rat Pharmacokinetic Studies: Rat “feed and bleed” studies were performed with LD and synthetically prepared LD:metal complexes wherein key PK parameters, such as maximum concentration (Cmax), AUC, and time of maximum concentration (tmax) were measured vis-à-vis the reference drug, LD.
In each experiment, male Sprague-Dawley rats with jugular vein catheters (250-300 g; n=5-10) are used. These rats were obtained from a commercial source (Harlan Laboratory Animals, Dublin, Va.) and housed individually. Water was available ad libitum. Rats were fed certified rodent chow ad libitum. After arrival, the health of rats was assessed and animals were placed in quarantine for a minimum of five days during which time general health was assessed. At the end of quarantine, rats were moved to permanent animal quarters for access and study.
All studies employed oral dosing using size 9 rodent gelatin capsules from Torpac (Fairfield, N.J.). After fasting overnight, the rats are dosed at time zero with periodic blood sampling from the catheter (5-8 time points between 0 and 24 hours). Blood (200-300 μL) is drawn and collected in heparinized tubes. Plasma is separated by centrifugation and stored at −20° C. until work-up. Plasma samples are then treated according to developed methodology (e.g., FEBS Lett., 2002, 524 (1-3), 199-203), and analyzed (LC/MS/MS) for drug concentrations. Average plasma values (±SEM) for each time are calculated and PK parameters, including Cmax, tmax, and total amount absorbed (AUC0-6h), are determined using standard software.
Each study employs a crossover design whereby the LD and a metal:LD complex are tested in the same rats with a 5-day wash-out period separating the two experiments.

Data on three molecules can be found in patent publication US10150792B2, “Bismuth-containing compounds, coordination polymers, methods for modulating pharmacokinetic properties of biologically active agents, and methods for treating patients” (priority 2010, dated 2018).

As to `O=C(O)C(Cl)Cl` [DCA, dichloroacetate], the Fraction absorbed in data set [1] was 100%.
As usually defined, the Cmax is the highest concentration seen after dosing. Broadly, the Tmax is the time at which the peak concentration occurs. Take `N[C@@H](Cc1ccc(O)c(O)c1)C(=O)O` [LD, levodopa, reference compound]: the Cmax in “in vivo” (male, Sprague-Dawley, in vivo, po) is 17 µM. In the data set “in vivo” (male, Sprague-Dawley, in vivo, po, 20 mg/kg), the time of peak concentration (Tmax) was 20 min.
For the molecule tris(LD)bismuth oxide [Bi(O)(dopa)3], the “Course of LD plasma levels” value in the data set “in vivo” (FIG. 13, oral, equivalent to 20 mg/kg LD + carbidopa 10 mg/kg, sampling to 3 hours) is listed as “remained at or near their peak levels for the duration of the study”. Moreover, the “LD plasma level at 3 hours” value in the data set “in vivo” (FIGS. 13 and 14, oral, equivalent to 20 mg/kg LD + carbidopa 10 mg/kg) amounted to 10 nmol/mL.
